Columns and labels:
human TLR8 = target: T1, human TLR8 (Homo sapiens, UniProt Q9NR97); test: TLR8 wild type NFκB-luc cellular reporter assay; type: cell-based; parameters: unit not given here; conditions: HEK293 NFκB-luc reporter, 6 hours incubation; for TLR8-wt (LEC): second part of table
T1 construct: expressed in transfected cells; host or cells: HEK293
T1 sequence (Q9NR97 27-1041): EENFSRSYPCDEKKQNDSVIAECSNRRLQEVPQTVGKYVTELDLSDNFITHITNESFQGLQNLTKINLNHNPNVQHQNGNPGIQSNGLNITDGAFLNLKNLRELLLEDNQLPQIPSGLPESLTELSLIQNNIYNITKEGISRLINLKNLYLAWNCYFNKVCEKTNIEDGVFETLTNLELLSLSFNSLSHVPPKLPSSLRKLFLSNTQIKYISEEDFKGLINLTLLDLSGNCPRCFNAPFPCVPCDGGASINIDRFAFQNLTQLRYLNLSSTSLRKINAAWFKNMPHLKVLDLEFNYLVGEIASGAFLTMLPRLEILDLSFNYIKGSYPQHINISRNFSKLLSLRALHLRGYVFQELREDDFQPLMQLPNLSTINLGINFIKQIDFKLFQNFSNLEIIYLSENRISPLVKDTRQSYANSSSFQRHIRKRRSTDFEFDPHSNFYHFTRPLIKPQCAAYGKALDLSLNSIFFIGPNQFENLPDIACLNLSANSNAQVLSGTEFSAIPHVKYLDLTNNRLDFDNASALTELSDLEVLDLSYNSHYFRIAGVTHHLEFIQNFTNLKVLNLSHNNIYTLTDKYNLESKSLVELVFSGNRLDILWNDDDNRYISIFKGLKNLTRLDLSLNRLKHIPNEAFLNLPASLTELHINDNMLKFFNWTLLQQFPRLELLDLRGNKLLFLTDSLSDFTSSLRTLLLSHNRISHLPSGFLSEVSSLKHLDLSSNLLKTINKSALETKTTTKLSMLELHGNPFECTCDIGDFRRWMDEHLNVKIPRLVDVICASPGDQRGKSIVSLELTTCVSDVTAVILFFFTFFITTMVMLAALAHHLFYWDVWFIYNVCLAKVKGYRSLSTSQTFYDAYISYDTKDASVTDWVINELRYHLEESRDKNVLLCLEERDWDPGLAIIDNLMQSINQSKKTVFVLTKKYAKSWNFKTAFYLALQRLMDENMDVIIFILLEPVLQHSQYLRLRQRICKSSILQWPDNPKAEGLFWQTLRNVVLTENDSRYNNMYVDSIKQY
Description: (§1) The ability of compounds to activate human TLR7 and/or TLR8 was assessed in a cellular reporter assay using HEK293 cells transiently transfected with a TLR7 or TLR8 expression vector and NFκB-luc reporter construct. In one instance the TLR expression construct expresses the respective wild type sequence or a mutant sequence comprising a deletion in the second leucine-rich repeat of the TLR.
(§2) Briefly, HEK293 cells were grown in culture medium (DMEM supplemented with 10% FCS and 2 mM Glutamine). For transfection of cells in 10 cm dishes, cells were detached with Trypsin-EDTA, transfected with a mix of CMV-TLR7 or TLR8 plasmid (750 ng), NFκB-luc plasmid (375 ng) and a transfection reagent and incubated 24 hours at 37° C. in a humidified 5% CO2 atmosphere. Transfected cells were then detached with Trypsin-EDTA, washed in PBS and resuspended in medium to a density of 1.67×10^5 cells/mL. Thirty microliters of cells were then dispensed into each well in 384-well plates, where 10 μL of compound in 4% DMSO was already present. Following 6 hours incubation at 37° C., 5% CO2, the luciferase activity was determined by adding 15 μl of Steady Lite Plus substrate (Perkin Elmer) to each well and readout performed on a ViewLux ultraHTS microplate imager (Perkin Elmer). Dose response curves were generated from measurements performed in quadruplicates. Lowest effective concentrations (LEC) values, defined as the concentration that induces an effect which is at least two fold above the standard deviation of the assay, were determined for each compound.

human TLR7 = target: T2, human TLR7 (Homo sapiens, UniProt Q9NYK1); test: TLR7 wild type NFκB-luc cellular reporter assay; type: cell-based; parameters: unit not given here; conditions: HEK293 NFκB-luc reporter, 6 hours incubation; for TLR7-wt (LEC): second part of table
T2 construct: expressed in transfected cells; host or cells: HEK293
T2 sequence (Q9NYK1 27-1049): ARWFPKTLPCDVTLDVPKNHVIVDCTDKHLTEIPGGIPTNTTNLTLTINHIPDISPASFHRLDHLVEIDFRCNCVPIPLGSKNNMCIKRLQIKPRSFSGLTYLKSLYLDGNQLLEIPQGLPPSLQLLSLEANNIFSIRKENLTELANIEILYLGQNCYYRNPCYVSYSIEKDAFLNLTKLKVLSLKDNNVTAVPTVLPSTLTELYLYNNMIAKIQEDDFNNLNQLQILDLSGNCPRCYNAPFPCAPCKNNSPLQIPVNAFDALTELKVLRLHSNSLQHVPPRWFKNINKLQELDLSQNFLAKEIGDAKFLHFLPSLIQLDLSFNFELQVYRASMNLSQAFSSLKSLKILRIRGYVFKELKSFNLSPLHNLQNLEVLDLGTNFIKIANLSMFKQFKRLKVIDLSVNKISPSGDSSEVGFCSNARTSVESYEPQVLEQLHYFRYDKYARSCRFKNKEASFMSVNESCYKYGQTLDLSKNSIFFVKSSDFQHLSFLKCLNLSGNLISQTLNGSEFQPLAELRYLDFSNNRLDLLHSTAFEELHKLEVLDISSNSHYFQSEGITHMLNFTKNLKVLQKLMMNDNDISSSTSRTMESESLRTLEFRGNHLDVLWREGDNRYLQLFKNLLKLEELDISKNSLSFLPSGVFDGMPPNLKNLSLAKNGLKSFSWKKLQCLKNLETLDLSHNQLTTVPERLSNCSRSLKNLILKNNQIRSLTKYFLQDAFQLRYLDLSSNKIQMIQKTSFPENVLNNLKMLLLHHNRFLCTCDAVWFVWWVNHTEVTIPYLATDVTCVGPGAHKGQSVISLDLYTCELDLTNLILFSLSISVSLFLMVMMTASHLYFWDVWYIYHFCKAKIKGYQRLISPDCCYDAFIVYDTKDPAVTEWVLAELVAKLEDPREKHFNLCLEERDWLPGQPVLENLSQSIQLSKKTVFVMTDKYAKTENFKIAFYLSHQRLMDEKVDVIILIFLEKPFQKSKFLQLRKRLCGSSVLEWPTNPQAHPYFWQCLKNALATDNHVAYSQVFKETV
Description: as §1
as §2, with “Following 6 hours incubation at 37° C., 5% CO2, the luciferase activity was determined by adding 15 μl of Steady Lite Plus substrate (Perkin Elmer) to each well and readout performed on a ViewLux ultraHTS microplate imager (Perkin Elmer).” left out

[1] = test system: HCV replicon (Huh-7 luc/neo cells); test: Suppression of HCV replicon replication by conditioned media from PBMC; type: cell-based, HCV type 1b; conditions: Hepatitis C virus, compound concentration applied to PBMCs giving 50% reduction of replicon luciferase activity, read-out: PBMC-HUH7_EC50
Description: Activation of human TLR7 results in robust production of interferon by plasmacytoid dendritic cells present in human blood. The potential of compounds to induce interferon was evaluated by looking at the antiviral activity in the HCV replicon system upon incubation with conditioned media from peripheral blood mononuclear cells (PBMC). The HCV replicon assay is based on a bicistronic expression construct, as described by Lohmann et al. (Science (1999) 285: 110-113; Journal of Virology (2003) 77: 3007-15 3019) with modifications described by Krieger et al. (Journal of Virology (2001) 75: 4614-4624). The assay utilized the stably transfected cell line Huh-7 luc/neo harboring an RNA encoding a bicistronic expression construct comprising the wild type NS3-NS5B regions of HCV type 1b translated from an Internal Ribosome Entry Site (IRES) from encephalomyocarditis virus (EMCV), preceded by a reporter gene (Firefly-luciferase) and a selectable marker gene (neoR, neomycine phosphotransferase). The construct is flanked by 5′ and 3′ NTRs (non-translated regions) from HCV type 1b. Continued culture of the replicon cells in the presence of G418 (neoR) is dependent on the replication of the HCV RNA. The stably transfected replicon cells that replicate HCV RNA autonomously and to high levels, encoding inter alia luciferase, were used for profiling of the conditioned cell culture media.
Briefly, PBMCs were prepared from buffy coats of at least two donors using a standard Ficoll centrifugation protocol. Isolated PBMCs were resuspended in RPMI medium supplemented with 10% human AB serum and 2×10^5 cells/well were dispensed into 384-well plates containing compounds (70 μL total volume). After overnight incubation, 10 μL of supernatant was transferred to 384-well plates containing 2.2×10^3 replicon cells/well in 30 μL (plated the day before). Following 24 hours of incubation, replication was measured by assaying luciferase activity using 40 μL/well Steady Lite Plus substrate (Perkin Elmer) and measured with ViewLux ultraHTS microplate imager (Perkin Elmer). The inhibitory activity of each compound on the Huh7-luc/neo cells were reported as EC50 values, defined as the compound concentration applied to the PBMCs resulting in a 50% reduction of luciferase activity which in turn indicates the degree of replication of the replicon RNA on transfer of a defined amount of PBMC culture medium. Recombinant interferon α-2a (Roferon-A) was used as a standard control compound.

[2] = test system: human TLR8 mutant (dIRR2); test: TLR8 mutant (deletion in second leucine-rich repeat) NFκB-luc cellular reporter assay; type: cell-based; parameters: unit not given here; conditions: HEK293 NFκB-luc reporter, mutant TLR8, 6 hours incubation
Description: as §1, §2

[3] = test system: human TLR7 mutant (dIRR2); test: TLR7 mutant (deletion in second leucine-rich repeat) NFκB-luc cellular reporter assay; type: cell-based; parameters: unit not given here; conditions: HEK293 NFκB-luc reporter, mutant TLR7, 6 hours incubation
Description: as §1, §2

SMILES	TLR8-wt (LEC) (human TLR8)	TLR7-wt (LEC) (human TLR7)	further results
CCCCNc1nc(N)nc2ccc(C#CC(C)O)cc12 (centres unmarked) [Compound 14]	4.77	0.65	
CCC[C@@H](CO)Nc1nc(N)nc2cc(OC)c(OC)cc12 [Compound 6]			TLR8-wt_LEC (human TLR8): 4.4; EC50 [1]: 3 µM; TLR8-dIRR2_LEC [2]: 2.3; TLR7-dIRR2_LEC [3]: 3.4
CCCCNc1nc(N)nc2cc(C(=O)NCc3ccccn3)ccc12 [Compound 93]	1.69	0.77	
CCC[C@@H](CCO)Nc1nc(N)nc2cc(OC)c(OC)cc12 [Compound 5]			TLR8-wt_LEC (human TLR8): 6.7; EC50 [1]: 3.3 µM; TLR8-dIRR2_LEC [2]: 2.6; TLR7-dIRR2_LEC [3]: 2.6
CCCCNc1nc(N)nc2ccccc12 [Compound 8]			TLR8-wt_LEC (human TLR8): 0.1; TLR8-dIRR2_LEC [2]: 0.02; TLR7-wt_LEC (human TLR7; lowest effective concentration): 0.1; TLR7-dIRR2_LEC [3]: 0.02
CCCCNc1nc(N)nc2ccc(C#N)cc12 [Compound 19]	7.05	>25	
CC[C@H](C)[C@@H](CO)Nc1nc(N)nc2cc(OC)c(OC)cc12 [Compound 7]			TLR8-wt_LEC (human TLR8): 13.8; EC50 [1]: 12.4 µM; TLR8-dIRR2_LEC [2]: 9.0; TLR7-dIRR2_LEC [3]: 3.8
CCCCNc1nc(N)nc2cc(C(=O)Nc3cccnc3)ccc12 [Compound 90]		0.42	
CCCCNc1nc(N)nc2ccc(-c3cnn(C)c3)cc12 [Compound 20]	2.55	>25	
CCCC[C@@H](CO)Nc1nc(N)nc2cc(OC)c(OC)cc12 [Compound 4]			TLR8-wt_LEC (human TLR8): 2.6; EC50 [1]: 3 µM; TLR8-dIRR2_LEC [2]: 1.7; TLR7-dIRR2_LEC [3]: 2.4
CCCCNc1nc(N)nc2cc(C(=O)N3CCOCC3)ccc12 [Compound 91]	0.53	0.13	

The next lines start with results.

TLR8-wt (LEC) (human TLR8)	TLR7-wt (LEC) (human TLR7)	SMILES	further results
0.31	0.21	CCCCNc1nc(N)nc2cccc(OCC(=O)OC)c12 [Compound 98]	
0.79	1.66	CCCCNc1nc(N)nc2cccc(CCc3ccccn3)c12 [Compound 12]	
0.73	0.57	CCCCNc1nc(N)nc2ccc(CCC(C)O)cc12 (centres unmarked) [Compound 16]	
16	2.7	CCCCNc1nc(N)nc2cccc(CCc3ccc(OC)cc3)c12 [Compound 96]	
5.05	10.23	CCCCNc1nc(N)nc2ccc(C(C)O)cc12 (centres unmarked) [Compound 23]	
1.95	6.07	CCCCNc1nc(N)nc2ccc(C(C)=O)cc12 [Compound 22]	
3.27	0.49	CCCCNC(=O)c1cccc2nc(N)nc(NCCCC)c12 [Compound 15]	
0.48	0.07	CCCCNc1nc(N)nc2cc(C(=O)N(C)C)ccc12 [Compound 94]	
5.87	1.53	CCCCNc1nc(N)nc2cc(C(=O)NCCN(C)C)ccc12 [Compound 92]	
0.83	0.6	CCCCNc1nc(N)nc2cccc(CCc3cccc(OC)c3)c12 [Compound 97]	
0.42	0.54	CCCCNc1nc(N)nc2cc(C(=O)NCc3ccccc3)ccc12 [Compound 95]	

From patent US8916575B2, “Quinazoline derivatives for the treatment of viral infections and further diseases” (Janssen R&D Ireland, priority 2011, dated 2014)
